Read-outs that look alike come from different tables or passages of the source.
Key:
[1] = system: Kallikrein; test: Anti-kallikrein activity (hydrolysis of TAME); type: biochemical; settings: at 1×10^-5 M
[2] = target: Thrombin (Homo sapiens, UniProt P00734); test: biochemical; settings: for IC50: molar concentration inhibiting 50% of TAME hydrolysis, read-out: Thrombin ID50; for inhibition at 10 µM: at 1×10^-5 M, read-out: Thrombin percentage inhibition
Experimental: (§1) The anti-trypsin, anti-plasmin, anti-kallikrein and anti-thrombin activities were determined according to the method of Muramatsu et al. [M. Muramatsu, T. Onishi, S. Makino, Y. Hayashi and S. Fujii, J. of Biochem., 58, 214 (1965)]. The data summarized in Table 1 are expressed in terms of molar concentration (ID50) of the test compound which inhibits 50% of the activity of each enzyme to hydrolyze TAME (tosylalginine methyl ester). The compound No. corresponds to the compound number shown in Examples.

[3] = target: T1, C1s (Homo sapiens, UniProt P09871); test: biochemical
T1 sequence (P09871 438-688 limits assumed): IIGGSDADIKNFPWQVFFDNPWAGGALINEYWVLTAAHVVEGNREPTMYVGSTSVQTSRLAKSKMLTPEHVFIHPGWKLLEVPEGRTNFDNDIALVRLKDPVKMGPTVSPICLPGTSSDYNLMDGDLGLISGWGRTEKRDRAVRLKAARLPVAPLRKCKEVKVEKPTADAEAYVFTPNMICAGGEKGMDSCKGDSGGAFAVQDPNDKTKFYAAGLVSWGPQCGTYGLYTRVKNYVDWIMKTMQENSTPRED
T1 sequence (P09871 16-437 partner limits assumed): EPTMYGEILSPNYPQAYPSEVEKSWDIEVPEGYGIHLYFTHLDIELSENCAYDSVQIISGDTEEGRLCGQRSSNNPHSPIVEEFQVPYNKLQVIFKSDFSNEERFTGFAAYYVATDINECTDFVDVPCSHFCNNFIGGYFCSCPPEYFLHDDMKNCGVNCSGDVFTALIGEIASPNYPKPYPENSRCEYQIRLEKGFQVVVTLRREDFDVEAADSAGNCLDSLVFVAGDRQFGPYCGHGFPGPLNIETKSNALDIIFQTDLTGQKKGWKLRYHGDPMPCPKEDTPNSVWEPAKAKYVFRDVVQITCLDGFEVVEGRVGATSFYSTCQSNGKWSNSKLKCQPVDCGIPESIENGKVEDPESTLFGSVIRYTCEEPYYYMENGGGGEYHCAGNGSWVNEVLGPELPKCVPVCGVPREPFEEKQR
Experimental: The anti-Cl esterase (Clr, Cls) activity was determined according to the method of Okamura et al. [K. Okamura, M. Muramatsu and S. Fujii, Biochem. Biophys. […] The figures in Table 2 have the following meanings:
Cls: Molar concentration of the test compound which inhibits 50% of the ability of Cls to hydrolyse ATEE (acetyltyrosin ethyl ester).

[4] = target: T2, Trypsin (Bos taurus, UniProt P00760); test: Anti-trypsin activity (hydrolysis of TAME); type: biochemical; settings: for IC50: molar concentration inhibiting 50% of TAME hydrolysis, read-out: Trypsin ID50
T2 sequence (P00760 24-246): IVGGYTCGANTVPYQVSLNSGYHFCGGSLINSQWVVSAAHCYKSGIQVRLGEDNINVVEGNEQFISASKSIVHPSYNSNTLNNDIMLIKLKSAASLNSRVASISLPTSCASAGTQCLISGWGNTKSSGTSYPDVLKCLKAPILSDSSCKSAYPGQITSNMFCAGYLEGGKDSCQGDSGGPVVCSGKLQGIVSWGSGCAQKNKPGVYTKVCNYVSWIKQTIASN
Experimental: (§2) The anti-trypsin, anti-plasmin, anti-kallikrein and anti-thrombin activities were determined according to the method of Muramatsu et al. [M. Muramatsu, T. Onishi, S. Makino, Y. Hayashi and S. Fujii, J. of Biochem., 58, 214 (1965)]. […] The compound No. corresponds to the compound number shown in Examples.

[5] = target: T3, C1r (Homo sapiens, UniProt P00736); test: Anti-C1 esterase (C1r) activity (hydrolysis of AAME); type: biochemical; settings: for IC50: AAME hydrolysis, read-out: Anti-C1 activity, C1r ID50; for inhibition at 10 µM: at 1×10^-5 M, read-out: Anti-C1 activity, C1r percent inhibition
T3 sequence (P00736 464-705 limits assumed): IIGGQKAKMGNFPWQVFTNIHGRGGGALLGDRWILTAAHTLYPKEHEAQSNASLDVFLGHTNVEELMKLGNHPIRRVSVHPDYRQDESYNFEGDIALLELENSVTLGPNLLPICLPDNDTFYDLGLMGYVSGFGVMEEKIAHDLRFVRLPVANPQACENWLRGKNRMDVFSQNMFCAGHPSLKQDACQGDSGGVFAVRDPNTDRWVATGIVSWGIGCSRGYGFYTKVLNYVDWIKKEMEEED
T3 sequence (P00736 18-463 partner limits assumed): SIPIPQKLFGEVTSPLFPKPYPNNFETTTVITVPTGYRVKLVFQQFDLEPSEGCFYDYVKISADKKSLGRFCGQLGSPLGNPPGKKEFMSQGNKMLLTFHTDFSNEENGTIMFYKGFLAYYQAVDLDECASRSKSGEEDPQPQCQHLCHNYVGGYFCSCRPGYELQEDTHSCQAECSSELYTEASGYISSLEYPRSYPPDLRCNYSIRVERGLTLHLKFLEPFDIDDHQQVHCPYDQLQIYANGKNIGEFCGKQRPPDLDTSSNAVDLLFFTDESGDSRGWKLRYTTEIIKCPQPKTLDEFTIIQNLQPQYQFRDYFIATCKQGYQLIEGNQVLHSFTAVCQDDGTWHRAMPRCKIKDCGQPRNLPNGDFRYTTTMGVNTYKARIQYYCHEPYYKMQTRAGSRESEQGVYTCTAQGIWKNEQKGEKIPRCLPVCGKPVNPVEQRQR
Experimental: The anti-Cl esterase ([…]) activity was determined according to the method of Okamura et al. [K. Okamura, M. Muramatsu and S. Fujii, Biochem. Biophys.

[6] = target: Plasmin (Homo sapiens, UniProt P00747); test: Anti-plasmin activity (hydrolysis of TAME); type: biochemical; settings: for IC50: molar concentration inhibiting 50% of TAME hydrolysis, read-out: Plasmin ID50; for inhibition at 10 µM: at 1×10^-5 M, read-out: Plasmin percentage inhibition
Sequence of Plasmin (P00747 581-810 limits assumed, species assumed): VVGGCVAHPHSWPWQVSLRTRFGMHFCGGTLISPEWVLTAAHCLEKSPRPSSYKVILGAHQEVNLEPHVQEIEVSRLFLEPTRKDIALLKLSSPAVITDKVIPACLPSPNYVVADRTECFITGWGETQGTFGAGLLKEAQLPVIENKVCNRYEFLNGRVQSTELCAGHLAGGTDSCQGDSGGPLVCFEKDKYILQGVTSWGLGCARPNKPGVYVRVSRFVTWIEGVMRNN
Sequence of Plasmin (P00747 97-580 partner limits assumed, species assumed): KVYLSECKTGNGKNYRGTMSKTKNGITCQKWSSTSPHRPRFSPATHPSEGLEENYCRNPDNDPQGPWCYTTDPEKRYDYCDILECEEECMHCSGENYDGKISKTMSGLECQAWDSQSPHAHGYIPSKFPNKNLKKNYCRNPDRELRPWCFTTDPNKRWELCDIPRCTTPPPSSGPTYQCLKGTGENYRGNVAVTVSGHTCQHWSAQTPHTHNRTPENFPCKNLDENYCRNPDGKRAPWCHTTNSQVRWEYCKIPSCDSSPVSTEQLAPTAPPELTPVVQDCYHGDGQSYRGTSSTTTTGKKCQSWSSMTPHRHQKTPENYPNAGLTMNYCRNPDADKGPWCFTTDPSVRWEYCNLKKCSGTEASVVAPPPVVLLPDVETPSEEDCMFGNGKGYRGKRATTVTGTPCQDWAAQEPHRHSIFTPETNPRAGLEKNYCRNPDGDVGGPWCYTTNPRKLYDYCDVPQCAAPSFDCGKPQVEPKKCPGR
Experimental: as §2

[7] = system: complement mediated hemolysis; test: Inhibition of complement mediated hemolysis; type: cell-based
Experimental: The principle of this method is based on the fact that hemolysis is caused by the activation of complement, when the latter is added to a complex (immune complex) of erythrocytes and the antibody thereof. The degree of hemolysis varies in proportion to the amount of complement added. Therefore, when a known amount of complement admixed with a C1 esterase inhibitor is used, the hemolysis must be suppressed in proportion to the inhibitory activity.

[8] = system: Kallikrein; test: Anti-kallikrein activity (hydrolysis of TAME); type: biochemical; settings: molar concentration inhibiting 50% of TAME hydrolysis; read-out: Kallikrein ID50
Experimental: as §1

[9] = ATEE hydrolysis, read-out: Anti-C1 activity, C1s ID50

SMILES	Kallikrein percentage inhibition [1]	IC50 [2]	IC50 [3, 9]	IC50 [4]	IC50 [5]	IC50 [6]	Inhibition of complement mediated hemolysis (%) ([7]; 1 × 10^-4)	Inhibition of complement mediated hemolysis (%) ([7]; 1 × 10^-5)	Inhibition of complement mediated hemolysis (%) ([7]; 1 × 10^-6)	Inhibition of complement mediated hemolysis (%) ([7]; 1 × 10^-7)	inhibition at 10 µM [2]	inhibition at 10 µM [6]	IC50 [3]	IC50 [8]	inhibition at 10 µM ([4]; at 1×10^-5 M, read-out: Trypsin percentage inhibition)	inhibition at 10 µM [5]
Cc1cccc(C(=O)Oc2ccc3cc(C(=N)N)ccc3c2)c1 [Compound 3, 6-amidino-2-naphthyl 3-methylbenzoate]	38%	4 µM	2 µM	2 µM	1 µM	4 µM	97%	60%	8%	11%						
COc1ccc(C(=O)Oc2ccc3cc(C(=N)N)ccc3c2)cc1 [Compound 7]	46%	3 µM	0.2 µM		0.1 µM	3 µM	51%	78%	21%	0%						
CCCCOc1ccc(C(=O)Oc2ccc3cc(C(=N)N)ccc3c2)cc1 [Compound 8]	43%		0.4 µM	0.04 µM	10 µM		46%	18%	23%		29%	17%				
N=C(N)c1ccc2cc(OC(=O)c3ccc(OCc4ccccc4)cc3)ccc2c1 [Compound 9]	19%			0.04 µM							20%	48%				
N=C(N)c1ccc2cc(OC(=O)c3ccc(F)cc3)ccc2c1 [Compound 15]	38%	2 µM		3 µM		1 µM	98%	89%	23%	2%			0.3 µM			
N=C(N)c1ccc2cc(OC(=O)c3ccc(Br)cc3)ccc2c1 [Compound 17]	23%		0.5 µM	4 µM	0.7 µM	2 µM	98%	72%	9%	0%						
N=C(N)c1ccc2cc(OC(=O)c3ccc(S(N)(=O)=O)cc3)ccc2c1 [Compound 29]	42%	2 µM		10 µM		2 µM										
N=C(N)c1ccc2cc(OC(=O)c3ccc(C=O)cc3)ccc2c1 [Compound 31]		0.3 µM	3 µM	4 µM	2 µM	0.4 µM	98%	99%	92%	76%				> 10 µM		
COc1ccc(CCC(=O)Oc2ccc3cc(C(=N)N)ccc3c2)cc1OC [Compound 49]	29%			2 µM		4 µM					17%					
N=C(N)Nc1ccc(CCC(=O)Oc2ccc3cc(C(=N)N)ccc3c2)cc1 [Compound 52]		> 10 µM	> 10 µM		> 10 µM	> 10 µM	48%	15%	6%	14%				> 10 µM	33%	
N=C(N)c1ccc2cc(OC(=O)C=Cc3ccccc3)ccc2c1 [Compound 57, 6-amidino-2-naphthyl cinnamate]		10 µM	3 µM	5 µM	30 µM	3 µM		80%	24%	23%				50 µM		
N=C(N)c1ccc2cc(OC(=O)C=Cc3ccc(N)cc3)ccc2c1 [Compound 63, 6-amidino-2-naphthyl 4-aminocinnamate]		> 10 µM	0.4 µM	2 µM		8 µM	73%	37%	26%	42%				4 µM		15%
N=C(N)Nc1ccc(C=CC(=O)Oc2ccc3cc(C(=N)N)ccc3c2)cc1 [Compound 64, 6-amidino-2-naphthyl 4-guanidinocinnamate]		> 10 µM	3 µM	2 µM		10 µM		39%	17%	19%				4 µM		14%
N=C(N)c1ccc2cc(OC(=O)C=Cc3cccc(C(F)(F)F)c3)ccc2c1 [Compound 66]			4 µM	6 µM	6 µM	0.5 µM	60%	6%	1%	1%	21%			> 10 µM		
COc1ccccc1OCC(=O)Oc1ccc2cc(C(=N)N)ccc2c1 [Compound 68]		10 µM	> 10 µM	> 10 µM	> 10 µM	> 10 µM	91%	4%	0%	0%				> 10 µM		

From patent publication US4532255A, “Amidine compounds and anticomplement agent comprising same” (Torii & Co., Ltd., priority 1980, dated 1985)
